Test results from US20260116867A1, “PROTEOLYSIS TARGETING CHIMERAS FOR HUMAN PREGNANE X RECEPTOR AND FOR DEGRADATION OF GSPT1” (ST. JUDE CHILDREN'S RESEARCH HOSPITAL, priority 2022, published 2026).

Assays:
PXR [1] = target: T1, PXR (Homo sapiens, UniProt O75469); assay: cell-based hPXR antagonistic assay; conditions: for inhibition at 10 µM: read-out: Antagonist (% inhibition at 10 μM); for IC50: read-out: Antagonist (IC50/μM)
T1 sequence (O75469 1-434): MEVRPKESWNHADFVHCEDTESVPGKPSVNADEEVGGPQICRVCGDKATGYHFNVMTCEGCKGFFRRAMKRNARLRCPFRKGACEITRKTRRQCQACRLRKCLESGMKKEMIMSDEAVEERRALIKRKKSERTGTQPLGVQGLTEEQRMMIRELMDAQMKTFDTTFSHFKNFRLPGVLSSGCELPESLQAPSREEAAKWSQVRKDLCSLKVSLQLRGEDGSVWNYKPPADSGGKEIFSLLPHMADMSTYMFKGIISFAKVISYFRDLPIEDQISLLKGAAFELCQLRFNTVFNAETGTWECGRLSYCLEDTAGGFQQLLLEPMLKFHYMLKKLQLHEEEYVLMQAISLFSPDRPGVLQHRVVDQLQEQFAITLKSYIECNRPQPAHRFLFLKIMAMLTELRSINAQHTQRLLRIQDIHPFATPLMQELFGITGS

PXR [2] = target: T1, PXR; assay: hPXR binding assay; conditions: for inhibition at 10 µM: read-out: Binding (% inhibition at 10 μM)
PXR [3] = target: T1, PXR; assay: cell-based hPXR inverse agonistic assay; conditions: for inhibition at 10 µM: read-out: Inverse agonist (% inhibition at 10 μM); for IC50: read-out: Inverse agonist (IC50/μM)
His-CRBN/DDB1 = target: T2, His-CRBN/DDB1 (Homo sapiens, UniProt Q96SW2); assay: TR-FRET CRBN competitive binding assay (BODIPY FL thalidomide probe); conditions: TR-FRET competitive binding, derived from FIG. 9D; read-out: CRBN Binding EC50 ± SD
T2 construct: made in house; host or cells: Sf9 insect cells (baculovirus)
Method: The pFastBacDual-6xHis-CRBN/DDB1 plasmid was cloned by GenScript and used for baculoviral expression of His-CRBN and untagged DDB1. Protein was expressed and purified essentially as described previously. The bacmid was produced in MAX Efficiency DH10Bac Competent Cells (Thermo Fisher Scientific) according to the manufacturer's instructions. To generate the P1 virus, 1×10^6 Sf9 cells were plated in each well of a six-well plate in 2 mL Sf-900 III SFM and transfected with 7 μg bacmid using Cellfectin II reagent (Thermo Fisher Scientific). After 6 h at 27° C., the media was replaced with 2 mL fresh Sf-900 III SFM. After three days, the supernatant was collected, centrifuged at 500×g for 5 min to remove cells and debris, transferred to new tubes, and stored at 4° C. To generate P2 virus, 2 mL P1 virus was added to 1×10^8 Sf9 cells in 50 mL Sf-900 III SFM and shaken at 27° C. for three days. The supernatant was collected and clarified as above. For protein expression, 5 mL P2 virus was added to each liter of Sf cells (2×10^6 cells/mL) and shaken at 27° C. for three days. Cells containing expressed protein were pelleted by centrifugation at 500×g for 5 min, the supernatant was removed, and pellets were stored at −80° C. until processing. […] The suspension was incubated on ice for 1 h, gently sonicated, and centrifuged for 1 h at 40,000×g at 4° C. The supernatant was applied to Ni-NTA Superflow resin (QIAGEN) equilibrated with lysis buffer. The resin was washed with 10 column volumes (CV) of lysis buffer, and proteins were eluted with 10 CV lysis buffer containing 500 mM imidazole. The solution was diluted to 200 mM NaCl using lysis buffer without NaCl and applied to a HiTrap ANX FF (High Sub) column (Cytiva) equilibrated with ANX binding buffer [50 mM Tris (pH 7.5), 200 mM NaCl, 3 mM TCEP]. The column was washed with 10 CV ANX binding buffer followed by 10 CV ANX wash buffer [50 mM Bis-Tris (pH 6.0), 200 mM NaCl, 3 mM TCEP]. A 20 CV linear gradient was then immediately applied from ANX binding buffer to ANX binding buffer containing 1 M NaCl using an AKTA avant chromatography system (Cytiva). The purest fractions were applied to a HiLoad 26/600 Superdex 200 pg size exclusion column equilibrated with 10 mM HEPES (pH 7.0), 240 mM NaCl, and 3 mM TCEP. Pure protein was concentrated to 20-30 mg/mL in Pierce PES Protein Concentrators (Thermo Fisher Scientific), flash frozen in liquid nitrogen, and stored at −80° C.
The assay buffer composition was 50 mM Tris (pH 7.5), 0.1% Triton X-100, 0.01% bovine serum albumin, and 1 mM DTT. […] Lastly, 5 μL/well of 8 nM Tb-anti-His and 8 nM His-CRBN/DDB1 in assay buffer was added. […] The plates were then protected from light exposure and incubated for 60 minutes at room temperature (RT). After incubation, the TR-FRET signal from each well was collected with a PHERAstar FS Microplate Reader (BMG Labtech). The percent inhibition for each well was calculated using equation 2: […]

Structure (SMILES)	inhibition at 10 µM (PXR [1]) [%]	IC50 (PXR [1]) [µM]	IC50 (PXR [2]) [µM]	inhibition at 10 µM (PXR [2]) [%]	inhibition at 10 µM (PXR [3]) [%]	IC50 (PXR [3]) [µM]	EC50 (His-CRBN/DDB1) [nM]
COc1ccc(OC)c(-n2nnc(C(=O)Nc3cc(OCCCCCCCCOc4cccc5c4C(=O)N(C4CCC(=O)NC4=O)C5=O)cc(C(C)(C)C)c3)c2C)c1 (stereo not drawn) [Compound M16, N-(3-(tert-butyl)-5-((8-((2-(2,6-dioxopiperidin-3-yl)-1,3-dioxoisoindolin-4-yl)oxy)octyl)oxy)phenyl)-1-(2,5-dimethoxyphenyl)-5-methyl-1H-1,2,3-triazole-4-carboxamide]	57	2.02 ± 0.47					
COc1ccc(OC)c(-n2nnc(C(=O)Nc3cc(OCCOCCOCCOCCOCCOCCN4C(=O)CCC(N5C(=O)c6cccc(N)c6C5=O)C4=O)cc(C(C)(C)C)c3)c2C)c1 (stereo not drawn) [Compound N7, N-(3-((17-(3-(4-amino-1,3-dioxoisoindolin-2-yl)-2,6-dioxopiperidin-1-yl)-3,6,9,12,15-pentaoxaheptadecyl)oxy)-5-(tert-butyl)phenyl)-1-(2,5-dimethoxyphenyl)-5-methyl-1H-1,2,3-triazole-4-carboxamide]	83	0.52 ± 0.095	0.43 ± 0.027	48	36	1.12 ± 0.3	
COc1ccc(OC)c(-n2nnc(C(=O)Nc3cc(C(C)(C)C)ccc3OCCCCCCCCOc3cccc4c3C(=O)N(C3CCC(=O)NC3=O)C4=O)c2C)c1 (stereo not drawn) [Compound M19, N-(5-(tert-butyl)-2-((8-((2-(2,6-dioxopiperidin-3-yl)-1,3-dioxoisoindolin-4-yl)oxy)octyl)oxy)phenyl)-1-(2,5-dimethoxyphenyl)-5-methyl-1H-1,2,3-triazole-4-carboxamide]	30	2.52 ± 1.38					
COc1ccc(OC)c(-n2nnc(C(=O)Nc3cc(OCCCCCCCCN4C(=O)CCC(N5Cc6c(N)cccc6C5=O)C4=O)cc(C(C)(C)C)c3)c2C)c1 (stereo not drawn) [Compound N6, N-(3-((8-(3-(4-amino-1-oxoisoindolin-2-yl)-2,6-dioxopiperidin-1-yl)octyl)oxy)-5-(tert-butyl)phenyl)-1-(2,5-dimethoxyphenyl)-5-methyl-1H-1,2,3-triazole-4-carboxamide]	11	6.51 ± 0.71					
COc1ccc(OC)c(-n2nnc(C(=O)Nc3cc(OCCCCN4C(=O)CCC(N5Cc6c(N)cccc6C5=O)C4=O)cc(C(C)(C)C)c3)c2C)c1 (stereo not drawn) [Compound N4, N-(3-(4-(3-(4-amino-1-oxoisoindolin-2-yl)-2,6-dioxopiperidin-1-yl)butoxy)-5-(tert-butyl)phenyl)-1-(2,5-dimethoxyphenyl)-5-methyl-1H-1,2,3-triazole-4-carboxamide]	103	0.17 ± 0.0045	0.087 ± 0.022	37	97	0.044 ± 0.008	
COc1ccc(OC)c(-n2nnc(C(=O)Nc3cc(C(C)(C)C)ccc3OCCOCCOCCOCCN3C(=O)CCC(N4Cc5c(N)cccc5C4=O)C3=O)c2C)c1 (stereo not drawn) [Compound N2, N-(2-(2-(2-(2-(2-(3-(4-amino-1-oxoisoindolin-2-yl)-2,6-dioxopiperidin-1-yl)ethoxy)ethoxy)ethoxy)ethoxy)-5-(tert-butyl)phenyl)-1-(2,5-dimethoxyphenyl)-5-methyl-1H-1,2,3-triazole-4-carboxamide]	32	5 ± 1.16	7.23 ± 4.88	27			
COc1ccc(OC)c(-n2nnc(C(=O)Nc3cc(C(C)(C)C)ccc3OCCOCCOCCOCCOCCOCCOc3cccc4c3C(=O)N(C3CCC(=O)NC3=O)C4=O)c2C)c1 (stereo not drawn) [Compound M20, N-(5-(tert-butyl)-2-((17-((2-(2,6-dioxopiperidin-3-yl)-1,3-dioxoisoindolin-4-yl)oxy)-3,6,9,12,15-pentaoxaheptadecyl)oxy)phenyl)-1-(2,5-dimethoxyphenyl)-5-methyl-1H-1,2,3-triazole-4-carboxamide]	58	6.33 ± 0.74	4.9 ± 0.8	64			
COc1ccc(OC)c(-n2nnc(C(=O)Nc3cc(NC(=O)CCCNC(=O)COc4cccc5c4C(=O)N(C4CCC(=O)NC4=O)C5=O)cc(C(C)(C)C)c3)c2C)c1 (stereo not drawn) [Compound M15, N-(3-(tert-butyl)-5-(4-(2-((2-(2,6-dioxopiperidin-3-yl)-1,3-dioxoisoindolin-4-yl)oxy)acetamido)butanamido)phenyl)-1-(2,5-dimethoxyphenyl)-5-methyl-1H-1,2,3-triazole-4-carboxamide]			2.19 ± 1.35	30			
COc1ccc(OC)c(-n2nnc(C(=O)Nc3cc(NC(=O)COCCOCCOCCOCCNc4cccc5c4C(=O)N(C4CCC(=O)NC4=O)C5=O)cc(C(C)(C)C)c3)c2C)c1 (stereo not drawn) [Compound M17, N-(3-(tert-butyl)-5-(14-((2-(2,6-dioxopiperidin-3-yl)-1,3-dioxoisoindolin-4-yl)amino)-3,6,9,12-tetraoxatetradecanamido)phenyl)-1-(2,5-dimethoxyphenyl)-5-methyl-1H-1,2,3-triazole-4-carboxamide]	70				84	1.98 ± 0.25	
COc1ccc(OC)c(-n2nnc(C(=O)Nc3cc(C(C)(C)C)ccc3OCCCCNc3cccc4c3CN(C3CCC(=O)NC3=O)C4=O)c2C)c1 (stereo not drawn) [Compound M13, N-(5-(tert-butyl)-2-(4-((2-(2,6-dioxopiperidin-3-yl)-1-oxoisoindolin-4-yl)amino)butoxy)phenyl)-1-(2,5-dimethoxyphenyl)-5-methyl-1H-1,2,3-triazole-4-carboxamide]	40	41 ± 5.3					
COc1ccc(OC)c(-n2nnc(C(=O)Nc3cc(Nc4cccc5c4C(=O)N(C4CCC(=O)NC4=O)C5=O)cc(C(C)(C)C)c3)c2C)c1 (stereo not drawn) [Compound M5, N-(3-(tert-butyl)-5-((2-(2,6-dioxopiperidin-3-yl)-1,3-dioxoisoindolin-4-yl)amino)phenyl)-1-(2,5-dimethoxyphenyl)-5-methyl-1H-1,2,3-triazole-4-carboxamide]	107	0.052 ± 0.0066	0.083 ± 0.0041	69	141	0.0078 ± 0.002	
COc1ccc(OC)c(-n2nnc(C(=O)Oc3cccc4c3C(=O)N(C3CCC(=O)NC3=O)C4=O)c2C)c1 (stereo not drawn) [Compound M2, 2-(2,6-dioxopiperidin-3-yl)-1,3-dioxoisoindolin-4-yl 1-(2,5-dimethoxyphenyl)-5-methyl-1H-1,2,3-triazole-4-carboxylate]			2.69 ± 1.33	46			
COc1ccc(OC)c(-n2nnc(S(=O)(=O)c3ccc(C(C)(C)C)cc3)c2C)c1 [SPA70, reference compound]							> 3000
COc1ccc(OC)c(-n2nnc(C(=O)Nc3cc(OCCCCNc4cccc5c4CN(C4CCC(=O)NC4=O)C5=O)cc(C(C)(C)C)c3)c2C)c1 (stereo not drawn) [Compound M14, N-(3-(tert-butyl)-5-(4-((2-(2,6-dioxopiperidin-3-yl)-1-oxoisoindolin-4-yl)amino)butoxy)phenyl)-1-(2,5-dimethoxyphenyl)-5-methyl-1H-1,2,3-triazole-4-carboxamide]	82	1.86 ± 0.53	0.13 ± 0.051	22	94	0.43 ± 0.14	
